According to US20230040415A1 (PureTech LYT 100, Inc., priority 2020, published 2023):
Read-outs that look alike come from different tables or passages of the source.

Columns and labels:
[1] = Food effect study Part 2, single 500 mg dose fed vs fasted; format: in vivo, human; conditions: human, plasma, oral, 500 mg, LYT-100 @500 mg single dose, analyte = label
Procedure: The comparison will be based on Day 1, Day 2 and Day 3 PK plasma samples after the first dose of study drug on Day 1 under fast and fed conditions of Part 2.
Subjects will be admitted to the CRU on Day −1 and will fast overnight for at least 10 h.

[2] = test system: Primary Mouse Lung Fibroblasts; assay: TGF-β-induced insoluble collagen synthesis, 96-well plate format (Sircol); format: cell-based; conditions: 500 μM, TGF-β 5 ng/ml, 72 hours, FIG. 4C; p=0.0003
Procedure: Approximately 5,000 primary mouse fibroblasts were plated in complete DMEM in 96 well plates and incubated for 3 days at which time the cultures achieved confluency. After cells reached confluency, the medium was removed and fresh DMEM supplemented with ascorbic acid (20 μg/ml) and prolin (10 μMol) was added. […] One hour later, TGF-β was added to the appropriate cultures at a final concentration of 5 ng/ml. After 72 hours, the media was replaced with a 0.5% glutaraldehyde solution. After 30 minutes, the adherent cells were washed and subsequently incubated with acetic acid at a final concentration of 0.5M. After a 30 min room temperature incubation, and subsequent washing steps, the wells were incubated with Sircol reagent. After 5 hours, the unbound dye was removed and the plates were washed and allowed to dry. To extract collagen-bound Sircol, 100 μL of alkaline solution (0.5M NaOH) was added and plates were shaken for 1 h on rotary shaker at room temperature. Absorbance at 600 nm was determined to detect bound collagen.

[3] = test system: Primary Mouse Lung Fibroblasts; assay: TGF-β-induced soluble fibronectin ELISA; format: cell-based; conditions: Fibroblast
Procedure: Approximately 5,000 primary mouse lung fibroblasts were plated in complete DMEM in 96 well plates and incubated for 3 days at which time the cultures achieved confluency. After cells reached to confluency, medium was removed and fresh DMEM supplemented with ascorbic acid (20 μg/ml) and prolin (10 μM) was added. […] One hour later, TGF-β (5 ng/ml) was added to the appropriate cultures at a final concentration. After 72 hours, 200 μl samples of the supernatant were placed onto an ELISA plate and incubated overnight. After blocking with %1 BSA for 2 h, plates were incubated with either an anti-collagen type I antibody or an anti-fibronectin antibody.
The plates were washed after 1 hour and incubated with secondary horseradish peroxidase-conjugated antibodies (anti-goat for the collagen antibody, anti-rabbit for the fibronectin antibody). After a series of washing steps the color reagent TMB (3,3′,5,5′-Tetramethylbenzidine) was added and 15 minutes later the reactions were terminated with equal volumes of 2 N H2SO4. The levels of soluble collagen and fibronectin were determined by evaluating absorbance at 450 nm.

L929 cells [4] = assay: Survival of L929 cells (MTT); format: cell-based; conditions: 500 μM, 72 hrs
Procedure: Five thousand L929 cells were plated in completed DMEN and incubated until confluency for 3 days. Medium was removed and complete DMEM containing Prolin (20 μg/ml) and ascorbic acid (10 uM) was added. […], of medium was removed, […], MTT solution was added for 4 hrs, then 100 μl of DMSO was added, and absorbance of developed dark pink color was determined at […].

L929 cells [5] = assay: TGF-induced collagen synthesis in L929 cells, 6-wells (SIRCOL); format: cell-based; conditions: 500 μM
Procedure: 100,000 L929 cells were plated in complete DMEN and incubated until confluency for 3 days. Medium was removed and complete DMEM containing Prolin (20 μg/ml) and ascorbic acid (10 μM) was added. […] Cells were further incubated for 72 hrs. Supernatant was removed, cells were washed with cold PBS, 1 ml SIRCOL reagent was added onto the cells and cells were scraped off, samples were shaken for 5 h. at RT, centrifuged at 10.000 rpm for 5 min, supernatant was removed, pellet was dissolved in 0.5 M acetic acid to remove unbound dye, and re-centrifuged at 10.000 rpm for 5 min, supernatant was removed and final pelet was dissolved in 1 ml 0.5M NaOH, shaken at RT for 5 h, 100 μl of resulted solution was placed in 96-well and O.D was determined at 600.

[2H]C([2H])([2H])c1ccc(=O)n(-c2ccccc2)c1 [LYT-100, 5-(methyl-d3)-1-phenylpyridin-2-(1H)-one]
AUC ([1]; read-out: AUC, Fasted): 60900 ng·h/mL | AUC ([1]; read-out: AUC, Fed): 49500 ng·h/mL | Cmax ([1]; read-out: Cmax, Fasted): 10300 ng/mL | Cmax ([1]; read-out: Cmax, Fed): 7900 ng/mL | diminution of TGF-β-stimulated insoluble collagen accumulation [2]: 24% | inhibition at 500 µM ([3]; TGF-β 5 ng/ml, 72 hours, p=0.0185, read-out: inhibition of TGF-β-dependent induction of soluble fibronectin): 11% | inhibition at 500 µM ([3]; no TGF-β, p=0.03, read-out: inhibition of background level of soluble fibronectin): 10% | survival of L929 cells (L929 cells [4]): does not affect survival | collagen synthesis in the absence of added TGF-β (L929 cells [5]): significantly inhibits | TGF-induced collagen synthesis (L929 cells [5]; TGF-β 5 ng/ml, 72 hrs): inhibits
